In ChEMBL document CHEMBL1145519, “Exploitation of structural and regulatory diversity in glutamate racemases” (Nature, 2007):
In brackets after ≈: the same amount, converted by molar mass.

Key:
Staphylococcus aureus = test: Antimicrobial activity against Staphylococcus aureus; format: functional
Helicobacter pylori = test: Antimicrobial activity against Helicobacter pylori; format: functional
Escherichia coli = test: Antimicrobial activity against Escherichia coli; format: functional
[1] = Inhibition of MurI in Escherichia coli
[2] = Inhibition of MurI in Staphylococcus aureus
Glutamate racemase [3] = molecular target: T1, Glutamate racemase (Helicobacter pylori (strain ATCC 700392 / 26695) (Campylobacterpylori), UniProt P56068); test: Binding affinity to Helicobacter pylori MurI by protein fluorescence binding assay
T1 sequence (P56068 whole entry): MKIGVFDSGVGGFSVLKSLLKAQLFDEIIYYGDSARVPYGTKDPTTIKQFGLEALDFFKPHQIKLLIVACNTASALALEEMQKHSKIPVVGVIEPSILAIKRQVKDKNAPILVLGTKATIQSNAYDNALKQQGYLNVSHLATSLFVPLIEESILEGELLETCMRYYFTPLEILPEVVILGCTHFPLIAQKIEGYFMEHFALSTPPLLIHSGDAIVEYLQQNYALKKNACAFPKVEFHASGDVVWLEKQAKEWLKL

Glutamate racemase [4] = molecular target: T1, Glutamate racemase; test: Binding affinity to Helicobacter pylori MurI by isothermal titration calorimetry
Glutamate racemase [5] = molecular target: T1, Glutamate racemase; test: Inhibition of Helicobacter pylori glutamate racemase
Glutamate racemase [6] = molecular target: T2, Glutamate racemase (Streptococcus pneumoniae serotype 4 (strain ATCC BAA-334 / TIGR4), UniProt P63640); test: Inhibition of MurI in Streptococcus pneumoniae
T2 sequence (P63640 whole entry): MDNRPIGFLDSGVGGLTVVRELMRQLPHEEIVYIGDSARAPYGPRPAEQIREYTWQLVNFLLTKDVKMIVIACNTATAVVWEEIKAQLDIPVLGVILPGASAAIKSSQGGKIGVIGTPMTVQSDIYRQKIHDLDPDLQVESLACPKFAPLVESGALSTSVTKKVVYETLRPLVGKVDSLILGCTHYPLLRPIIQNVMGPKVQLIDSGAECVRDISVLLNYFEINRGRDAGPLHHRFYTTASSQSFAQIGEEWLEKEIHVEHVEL

Streptococcus pneumoniae = test: Antimicrobial activity against Streptococcus pneumoniae; format: functional
Glutamate racemase [7] = molecular target: Glutamate racemase (Helicobacter pylori (strain ATCC 700392 / 26695) (Campylobacterpylori), UniProt P56068, E151K); test: Inhibition of Helicobacter pylori MurI E151K mutant
Chain of Glutamate racemase (Helicobacter pylori (strain ATCC 700392 / 26695) (Campylobacterpylori), UniProt P56068, E151K) (P56068 whole entry E151K): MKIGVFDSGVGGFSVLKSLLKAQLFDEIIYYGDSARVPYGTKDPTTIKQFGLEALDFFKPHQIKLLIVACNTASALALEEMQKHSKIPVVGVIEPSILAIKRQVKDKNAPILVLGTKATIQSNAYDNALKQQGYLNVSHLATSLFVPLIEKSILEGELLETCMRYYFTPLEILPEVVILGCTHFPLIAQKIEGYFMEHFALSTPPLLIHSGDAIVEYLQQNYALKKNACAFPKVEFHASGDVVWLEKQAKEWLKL

Glutamate racemase [8] = molecular target: Glutamate racemase (Helicobacter pylori (strain ATCC 700392 / 26695) (Campylobacterpylori), UniProt P56068, A75T); test: Inhibition of Helicobacter pylori MurI A75T mutant
Chain of Glutamate racemase (Helicobacter pylori (strain ATCC 700392 / 26695) (Campylobacterpylori), UniProt P56068, A75T) (P56068 whole entry A75T): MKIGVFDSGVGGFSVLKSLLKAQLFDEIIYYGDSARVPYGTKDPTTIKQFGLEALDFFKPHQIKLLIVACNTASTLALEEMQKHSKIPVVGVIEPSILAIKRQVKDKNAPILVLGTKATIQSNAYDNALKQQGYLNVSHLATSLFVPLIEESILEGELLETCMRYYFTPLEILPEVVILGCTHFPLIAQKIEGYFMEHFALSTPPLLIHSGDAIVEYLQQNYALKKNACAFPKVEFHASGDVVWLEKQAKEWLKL

CC(C)Cn1c(=O)n(C)c(=O)c2c(-c3ccncc3)n(Cc3cccc4ccccc34)nc21
MIC (Staphylococcus aureus): > 64 µg/mL | MIC (Helicobacter pylori): 4 µg/mL (≈ 9.1 µM) | MIC (Escherichia coli): > 64 µg/mL | IC50 [1]: > 400 µM | IC50 [2]: > 400 µM | Kd (Glutamate racemase [3]): 3.9 µM | Kd (Glutamate racemase [4]): 2.9 µM | IC50 (Glutamate racemase [5]): 1.4 µM | IC50 (Glutamate racemase [6]): > 400 µM | MIC (Streptococcus pneumoniae): > 64 µg/mL

Cn1cc(C#N)cc1-c1c2c(=O)n(C)c(=O)n(CC3CC3)c2nn1Cc1ccnc2ccc(Cl)cc12
MIC (Staphylococcus aureus): > 64 µg/mL | MIC (Helicobacter pylori): 0.5 µg/mL (≈ 1 µM) | MIC (Escherichia coli): > 64 µg/mL | IC50 [1]: > 400 µM | IC50 [2]: > 400 µM | Kd (Glutamate racemase [3]): 0.025 µM | IC50 (Glutamate racemase [5]): 0.025 µM | IC50 (Glutamate racemase [6]): > 400 µM | MIC (Streptococcus pneumoniae): > 64 µg/mL

N[C@H](CCC(=O)O)C(=O)O [D-GLUTAMATE]
Ki (Glutamate racemase [7]): > 100000 µM | Ki (Glutamate racemase [5]): 5.8 µM | Ki (Glutamate racemase [8]): 661 µM
